Data taken from publication PMC8125408, “Polyoxazolines with a Vicinally Double-Bioactivated Terminus for Biomacromolecular Affinity Assessment” (Sensors (Basel, Switzerland), 2021).
Read-outs that look alike come from different tables or passages of the source.

What was measured:
[1] = molecular target: T1, Concanavalin A (ConA) (Canavalia ensiformis, UniProt P02866); details: PBS, 25 °C, four ConA concentrations 118 to […], no aff. = no affinity of the conjugate to the lectin could be determined
Method: SAW measurements were performed with apparatus from SAW Instruments GmbH, which included an autosampler and allowed for measuring of protein adsorption and KD value determination. Measurements were performed at 25 °C using PBS as a running buffer. For the immobilization of polymers containing a thioether group on the bare gold sensor chip surface 30 µL of polymers per lane (concentration: 10 µg·mL^−1 in PBS) were preincubated onto the sensor chip for 1 h with an external application mask. Remaining unspecific protein binding sites on the bare gold surface were saturated by the injection of 500 µM BSA. Purified recombinant ConA was used as an analyte at four concentrations, ranging from 118 to 944 nM. The flow rate for the acquisition of interaction data was set to 40 µL·min^−1 in all experiments. Association was measured for 300 s, then dissociation was initiated by perfusing the running buffer, and the dissociation phase was also monitored for 300 s. Regeneration of the chip surface was performed by injection of two 60 s pulses of 100 mM glycine (pH 2.5) at a flow rate of 100 µL·min^−1. Interaction data were analyzed using the FitMaster add-in (SAW Instruments GmbH) of Origin software version 8.5 (OriginLab Corporation), applying a simple Langmuir-type 1:1 interaction model. Association rate constant kon values and dissociation rates constant koff values were obtained by fitting data of individual experiments. Equilibrium binding KD values were deduced using the equation KD = koff/kon. […]
Following the preparation of the gold surface with the polymer conjugates and saturation with BSA, the main measurement can be performed by analyzing the binding affinity of the lectin to the functionalized surface. For this, a constant flow of a series of ConA dilutions with defined concentrations of ConA is injected on each channel and the phase change of surface acoustic waves, which are influenced by binding events, is monitored. […] After measuring four different ConA concentrations, the binding and dissociation curves are fitted and the KD value is calculated.

[2] = molecular target: T1, Concanavalin A (ConA); details: HBS150T pH 7.4, 25 °C, ConA 118 to […], no aff. = no affinity could be determined
Method: Interactions between polymers and Concanavalin A (ConA) were measured by SPR using a […] ®4SPR system (Reichert Technologies). Measurements were performed at 25 °C using HBS150T (10 mM HEPES (pH 7.4), 150 mM NaCl, 3.4 mM EDTA, 0.005% (v/v) Tween 20) as running buffer. For the immobilization of polymers containing a thioether group on the bare gold sensor chip surface, the polymers were injected onto a sensor for 8 min at a flow rate of 10 µL/min to cause polymer coating to a final density of 1000 resonance units. Remaining unspecific protein binding sites on the bare gold surface were saturated by the injection of 500 µM BSA. Purified recombinant ConA was used as an analyte at four concentrations, ranging from 118 to 944 nM. The flowrate for the acquisition of interaction data was set to 25 µL·min^−1 in all experiments. Association was measured for 180 s, then dissociation was initiated by perfusing running buffer, and the dissociation phase was monitored for 300 s. Regeneration of the chip surface was performed by injecting two 60 s pulses of 100 mM glycine (pH 2.5) at a flow rate of 100 µL·min^−1. Interaction data were analyzed using the software TraceDrawer version 1.8.1 (Ridgeview Instruments AB, Uppsala, Sweden), applying a simple Langmuir-type 1:1 interaction model and using global fitting for the rate constants. Association rate constant kon values and dissociation rates constant koff values were obtained by fitting the data of individual experiments. Equilibrium binding KD values were deduced using the equation KD = koff/kon. All SPR experiments were performed in at least three independent experiments.
Preparing the samples is identical to SAW measurements. The SPR measuring channels were coated with polymer solution, and unoccupied gold surface was saturated with BSA.

CGGWYKYW-PMeOx20-SEt
no aff.: SAW KD ([1]; Lane 1) | SAW KD ([1]; Lane 2) | SAW KD ([1]; Lane 3) | SPR KD ([2]; Lane 1 (for III: repeat (1))) | SPR KD ([2]; Lane 2 (for III: repeat (1))) | SPR KD ([2]; Lane 3 (for III: repeat (1))) | SPR KD ([2]; Lane 4 (for III: repeat (1)))
